Experimental data taken from US20240277722A1, “CANCER THERAPY USING A COMBINATION OF CDK7 INHIBITOR WITH AN ANTI-CANCER AGENT” (Aurigene Oncology Limited, priority 2021, published 2024).
Values joined by “and” are separate entries in the source; they are usually repeats but may differ in a detail not shown here. Equal entries are not always repeated.

Legend:
[1] = system: MCF-7 cells; test: MCF-7 cell proliferation, CTG reagent, 6-day treatment, single agents and combination (CompuSyn synergy analysis); format: cell-based
Procedure: The effect of 6-day compound treatment on cell proliferation was measured using CTG reagent.

[2] = system: Z-138 cells; test: Z-138 cell proliferation, CTG reagent, 3-day treatment, single agents and combination (CompuSyn synergy analysis); format: cell-based; details: for % Inhibition in proliferation: 3 days
Procedure: Z-138 cells were treated with serial dilutions of Compound-44A (CDK7 inhibitor), serial dilutions of venetoclax individually and in combination for 3 days. The effect of 3-day compound treatment on cell proliferation was measured using CTG reagent. Percentage inhibition of cell proliferation in individual (Compound-44A, venetoclax) and combination treatments (Compound-44A+venetoclax) were analyzed using CompuSyn software to assess synergy.

Compound: C[C@]12CC[C@@H]3c4ccc(O)cc4C[C@@H](CCCCCCCCC[S+]([O-])CCCC(F)(F)C(F)(F)F)[C@H]3[C@@H]1CC[C@@H]2O (stereo partly shown) [Fulvestrant, fulvestrant]
- % Inhibition in proliferation ([1]; Fulvestrant 0.000000164 nM + Compound-44A 0.00 nM, 6 days): 2.8%
- % Inhibition of proliferation ([1]; Fulvestrant 0.000000164 nM, Day-6): 0.6% and 2.7% and 4.9%
- % Inhibition in proliferation ([1]; Fulvestrant 0.000000819 nM + Compound-44A 0.00 nM, 6 days): 10.4%
- % Inhibition in proliferation ([1]; Fulvestrant 0.000004096 nM + Compound-44A 0.00 nM, 6 days): 5.0%
- % Inhibition of proliferation ([1]; Fulvestrant 0.000004096 nM, Day-6): 6.6% and 7.7% and 0.7%
- % Inhibition in proliferation ([1]; Fulvestrant 0.00002048 nM + Compound-44A 0.00 nM, 6 days): 7.1%
- % Inhibition of proliferation ([1]; Fulvestrant 0.00002048 nM, Day-6): 7.2% and 5.9%
- % Inhibition in proliferation ([1]; Fulvestrant 0.0001024 nM + Compound-44A 0.00 nM, 6 days): 0.9%
- % Inhibition of proliferation ([1]; Fulvestrant 0.0001024 nM, Day-6): 4.2% and −1.2% and −0.1%
- % Inhibition in proliferation ([1]; Fulvestrant 0.000512 nM + Compound-44A 0.00 nM, 6 days): 7.5%
- % Inhibition of proliferation ([1]; Fulvestrant 0.000512 nM, Day-6): 3.2% and 7.4% and 11.8%
- % Inhibition in proliferation ([1]; Fulvestrant 0.00256 nM + Compound-44A 0.00 nM, 6 days): 3.4%
- % Inhibition in proliferation ([1]; Fulvestrant 0.0128 nM + Compound-44A 0.00 nM, 6 days): 1.5%
- % Inhibition in proliferation ([1]; Fulvestrant 0.064 nM + Compound-44A 0.00 nM, 6 days): −1.2%
- % Inhibition of proliferation ([1]; Fulvestrant 0.064 nM, Day-6): 3.9% and −2.5% and −5%
- % Inhibition in proliferation ([1]; Fulvestrant 0.32 nM + Compound-44A 0.00 nM, 6 days): 24.2%
- % Inhibition of proliferation ([1]; Fulvestrant 0.32 nM, Day-6): 27.7% and 23.3%
- % Inhibition in proliferation ([1]; Fulvestrant 1.6 nM + Compound-44A 0.00 nM, 6 days): 79.8%
- % Inhibition of proliferation ([1]; Fulvestrant 1.6 nM, Day-6): 78.6% and 80%
- % Inhibition in proliferation ([1]; Fulvestrant 8 nM + Compound-44A 0.00 nM, 6 days): 87.5%
- % Inhibition of proliferation ([1]; Fulvestrant 8 nM, Day-6): 88.4% and 86.3%
- % Inhibition in proliferation ([1]; Fulvestrant 40 nM + Compound-44A 0.00 nM, 6 days): 86.9%
- % Inhibition of proliferation ([1]; Fulvestrant 40 nM, Day-6): 86%
- % Inhibition in proliferation ([1]; Fulvestrant 1000 nM + Compound-44A 0.00 nM, 6 days): 88.7%
- % Inhibition of proliferation ([1]; Fulvestrant 1000 nM, Day-6): 90.2%
- % Inhibition in proliferation ([1]; Fulvestrant 3000 nM + Compound-44A 0.00 nM, 6 days): 90.0%
- % Inhibition of proliferation ([1]; Fulvestrant 3000 nM, Day-6): 90.6% and 89.5%
- % Inhibition in proliferation ([1]; Fulvestrant 10000 nM + Compound-44A 0.00 nM, 6 days): 95.0%
- % Inhibition of proliferation ([1]; Fulvestrant 10000 nM, Day-6): 95.7% and 95.1%
- inhibition at 20.48 fM ([1]; Homo sapiens, MCF7, Fulvestrant 0.00002048 nM, Day-6): 8.1%
- inhibition at 0.00032 µM ([1]; Homo sapiens, MCF7, Fulvestrant 0.32 nM, Day-6): 21.6%
- inhibition at 0.0016 µM ([1]; Homo sapiens, MCF7, Fulvestrant 1.6 nM, Day-6): 80.9%
- inhibition at 0.008 µM ([1]; Homo sapiens, MCF7, Fulvestrant 8 nM, Day-6): 87.8%
- inhibition at 0.04 µM ([1]; Homo sapiens, MCF7, Fulvestrant 40 nM, Day-6): 85.9%
- inhibition at 0.2 µM ([1]; Homo sapiens, MCF7, Fulvestrant 200 nM, Day-6): 85.8%
- inhibition at 1 µM ([1]; Homo sapiens, MCF7, Fulvestrant 1000 nM, Day-6): 88.8%
- inhibition at 3 µM ([1]; Homo sapiens, MCF7, Fulvestrant 3000 nM, Day-6): 89.9%
- inhibition at 10 µM ([1]; Homo sapiens, MCF7, Fulvestrant 10000 nM, Day-6): 94.3%
- inhibition of proliferation in MCF-7 cells ([1]; single agent, serial dilutions, 6 days): dose dependent inhibition of proliferation

Compound: CC1(C)CCC(CN2CCN(c3ccc(C(=O)NS(=O)(=O)c4ccc(NCC5CCOCC5)c([N+](=O)[O-])c4)c(Oc4cnc5[nH]ccc5c4)c3)CC2)=C(c2ccc(Cl)cc2)C1 [Venetoclax, venetoclax]
- inhibition at 0.004572 µM ([2]; Homo sapiens, Z-138, Venetoclax 0.004572 μM, Day-3): 7.4%
- inhibition at 0.013717 µM ([2]; Homo sapiens, Z-138, Venetoclax 0.013717 μM, Day-3): 18.9%
- inhibition at 0.041152 µM ([2]; Homo sapiens, Z-138, Venetoclax 0.041152 μM, Day-3): 35.6%
- inhibition at 0.123457 µM ([2]; Homo sapiens, Z-138, Venetoclax 0.123457 μM, Day-3): 49.8%
- inhibition at 0.37037 µM ([2]; Homo sapiens, Z-138, Venetoclax 0.370370 μM, Day-3): 63.8%
- inhibition at 1.11111 µM ([2]; Homo sapiens, Z-138, Venetoclax 1.111111 μM, Day-3): 75.6%
- inhibition at 3.33333 µM ([2]; Homo sapiens, Z-138, Venetoclax 3.333333 μM, Day-3): 90.5%
- inhibition at 10 µM ([2]; Homo sapiens, Z-138, Venetoclax 10.000000 μM, Day-3): 99.7%
- inhibition at 30 µM ([2]; Homo sapiens, Z-138, Venetoclax 30.000000 μM, Day-3): 99.9%
- % Inhibition in proliferation ([2]; Venetoclax 0.000006 μM + Compound-44A 0.0 μM): −3.0%
- % Inhibition of proliferation ([2]; Venetoclax 0.000006 μM, Day-3): 1.6% and −2.7% and −8.2%
- % Inhibition in proliferation ([2]; Venetoclax 0.000019 μM + Compound-44A 0.0 μM): −10.0%
- % Inhibition in proliferation ([2]; Venetoclax 0.000169 μM + Compound-44A 0.0 μM): −9.0%
- % Inhibition in proliferation ([2]; Venetoclax 0.000508 μM + Compound-44A 0.0 μM): −10.0%
- % Inhibition in proliferation ([2]; Venetoclax 0.001524 μM + Compound-44A 0.0 μM): −0.2%
- % Inhibition in proliferation ([2]; Venetoclax 0.004572 μM + Compound-44A 0.0 μM): 8.0%
- % Inhibition of proliferation ([2]; Venetoclax 0.004572 μM, Day-3): 6.3% and 11.2%
- % Inhibition in proliferation ([2]; Venetoclax 0.013717 μM + Compound-44A 0.0 μM): 19.0%
- % Inhibition of proliferation ([2]; Venetoclax 0.013717 μM, Day-3): 19.7%
- % Inhibition in proliferation ([2]; Venetoclax 0.041152 μM + Compound-44A 0.0 μM): 33.0%
- % Inhibition of proliferation ([2]; Venetoclax 0.041152 μM, Day-3): 29.6% and 34.7%
- % Inhibition in proliferation ([2]; Venetoclax 0.123457 μM + Compound-44A 0.0 μM): 53.0%
- % Inhibition of proliferation ([2]; Venetoclax 0.123457 μM, Day-3): 53.8% and 55.1%
- % Inhibition in proliferation ([2]; Venetoclax 0.370370 μM + Compound-44A 0.0 μM): 65.0%
- % Inhibition of proliferation ([2]; Venetoclax 0.370370 μM, Day-3): 65.2% and 66.6%
- % Inhibition in proliferation ([2]; Venetoclax 1.111111 μM + Compound-44A 0.0 μM): 76.0%
- % Inhibition of proliferation ([2]; Venetoclax 1.111111 μM, Day-3): 73.5% and 78.1%
- % Inhibition in proliferation ([2]; Venetoclax 3.333333 μM + Compound-44A 0.0 μM): 92.0%
- % Inhibition of proliferation ([2]; Venetoclax 3.333333 μM, Day-3): 91.6% and 92.6%
- % Inhibition in proliferation ([2]; Venetoclax 10.0 μM + Compound-44A 0.0 μM): 100.0%
- % Inhibition of proliferation ([2]; Venetoclax 10.000000 μM, Day-3): 99.8% and 100%
- % Inhibition in proliferation ([2]; Venetoclax 30.0 μM + Compound-44A 0.0 μM): 100.0%
- % Inhibition of proliferation ([2]; Venetoclax 30.000000 μM, Day-3): 100.1%
- % Inhibition in proliferation ([2]; Venetoclax […] + Compound-44A 0.0 μM): −10.0%
